In patent US20080206866A1, “Reagency and Method for Preventing Time-Dependent Expression in Biological Cells” (ANDNAGEN AG, priority 2005, published 2008):

How the values were obtained:
[1] = test system: tumour-associated transcripts GA733-2, MUC-1 and Her-2; assay: Detection of time-dependent induced transcription in treated blood samples of healthy donors (immunomagnetic cell selection, RT-PCR, Bioanalyser); type: cell-based, human; settings: healthy donor
Description: (§1) In all the examples which are represented subsequently, an analysis was implemented as described in EP 02 732 726. Antibodies were thereby coupled to magnetic particles for cell selection. The antibodies represented subsequently in Table 1 were thereby used as antibodies.
(§2) The magnetic particles were thereby used in a concentration of 4×10^8 beads/ml (CELLection™ Pan Mouse IgG Kit, company Dynal). The ratios between the antibody concentration and the antibodies coupled thereto are reproduced in Table 2.
The magnetic particles prepared in this way were mixed in equal parts and added to the blood (EDTA) in 100 μl PBS per 5 ml sample.
After 30 min incubation in an overhead agitator, the magnetic particles which were present possibly as cell-antibody magnetic particle complexes, were washed three times with PBS by means of a magnetic particle concentrator (MPC®-S, company Dynal) and the adhering cells were treated subsequently corresponding to the mRNA isolation protocol described subsequently. […]
(§3) The thus produced amplificates of the cDNA were separated electrophoretically by means of a bioanalyser 2100 (company Agilent). […] Peaks with a level of <4.0 are evaluated as negative. Peaks, the level of which is 4.0 to 6.7, can be evaluated neither as positive nor as negative. In this way FIGS. 1 to 6 were produced and evaluated.

tumour cell line Calu-3 = assay: Detection of 2 inoculated Calu-3 tumour cells in treated blood samples; type: cell-based, human; settings: 2 Calu-3 cells
Description: as §1, §2
The magnetic particles prepared in this way were mixed in equal parts and added to the blood (EDTA) in 100 μl PBS per 5 ml sample. […]
as §3, with “evaluated. […]” for “evaluated.”
Tracks 1, 4 and 7 thereby show a ladder with size markers, tracks 2, 5 and 8 show the amplified DNA fragments of the tumour-associated transcripts to be detected in a healthy donor and of an internal control of β-actin. […]

[2] = 0.01% (w/v) DU, 0 h, 24 h and 48 h at 4° C.
[3] = 0.025%, 0.05% and 0.075% (w/v) bronopol, 24 h at 4° C.

| SMILES | analysis result for illegitimate time-dependent induced expression, samples without inoculated cells [1, 2] | detection of tumour-associated transcripts of inoculated cells (tumour cell line Calu-3; [2]) | analysis result for illegitimate time-dependent induced expression [1, 3] | detection of tumour-associated transcripts of inoculated cells (tumour cell line Calu-3; [3]) |
| --- | --- | --- | --- | --- |
| O=C(NCO)N(CO)C1(CO)C(=O)NC(=O)N1CO (stereo not shown) [DU, diazolidinyl urea] | negative | detected unequivocally | – | – |
| O=[N+]([O-])C(Br)(CO)CO [bronopol, 2-bromo-2-nitropropane-1,3-diol] | – | – | negative | detected unequivocally |
